Reference: paper PMC10709440, “High-throughput ligand profile characterization in novel cell lines expressing seven heterologous insect olfactory receptors for the detection of volatile plant biomarkers” (Scientific Reports, 2023)
Where two headings read alike, the source gives them in different places.

Target: T1, Drosophila OR13a (Drosophila melanogaster, UniProt Q9VXL0)
T1 construct: expressed in transfected cells
T1 sequence (Q9VXL0 1-418): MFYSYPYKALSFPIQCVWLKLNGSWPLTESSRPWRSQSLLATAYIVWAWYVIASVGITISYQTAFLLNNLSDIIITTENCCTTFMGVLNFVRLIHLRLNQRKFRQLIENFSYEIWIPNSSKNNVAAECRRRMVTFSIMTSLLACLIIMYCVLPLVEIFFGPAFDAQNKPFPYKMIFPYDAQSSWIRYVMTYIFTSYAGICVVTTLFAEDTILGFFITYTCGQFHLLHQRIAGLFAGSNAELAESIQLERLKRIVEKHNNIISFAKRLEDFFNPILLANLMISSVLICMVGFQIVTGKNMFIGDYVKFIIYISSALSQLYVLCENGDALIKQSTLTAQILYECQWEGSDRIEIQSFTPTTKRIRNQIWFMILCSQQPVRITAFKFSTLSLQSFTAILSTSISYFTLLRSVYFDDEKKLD
T1 sequence (Q9VNB5 1-486 partner): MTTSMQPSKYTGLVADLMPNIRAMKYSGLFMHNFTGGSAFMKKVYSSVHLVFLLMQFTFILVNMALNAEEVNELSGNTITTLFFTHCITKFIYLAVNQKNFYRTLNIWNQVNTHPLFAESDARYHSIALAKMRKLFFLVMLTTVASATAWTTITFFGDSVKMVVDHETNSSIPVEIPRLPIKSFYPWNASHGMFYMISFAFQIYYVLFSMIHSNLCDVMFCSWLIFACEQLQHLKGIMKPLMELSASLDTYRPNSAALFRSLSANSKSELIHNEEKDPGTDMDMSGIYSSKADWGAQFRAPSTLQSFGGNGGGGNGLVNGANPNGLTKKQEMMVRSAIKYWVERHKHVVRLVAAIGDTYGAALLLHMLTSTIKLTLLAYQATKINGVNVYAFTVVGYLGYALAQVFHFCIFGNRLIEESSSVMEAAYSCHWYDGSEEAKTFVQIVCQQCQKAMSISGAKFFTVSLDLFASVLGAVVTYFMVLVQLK
Experiment: Calcium ion fluorescence (GCaMP6) assay, OR13a stable HEK293 cell line
Format: cell-based
Conditions: for OR13a response (VUAA1-normalized) at 1 μM / OR13a response (VUAA1-normalized) at 10 μM / OR13a response (VUAA1-normalized) at 100 μM: OR13a cell line
Method: These VUAA1 normalized ∆F values were used to compare the different receptors and ligands.
The concentration-dependent effect of the reference ligands on their cognate cell lines was examined in more detail. Twelve different ligand concentrations were measured on each cell line in an overall 0.01 μM to 100 μM concentration range with 5 repetitions with three technical replicates each time.
Twelve thousand to 18,000 cells were plated into each well of a black wall, transparent bottom 384-well microplate (Greiner) 48 h or 72 h before the measurements and were simultaneously treated with 1 μg/mL doxycycline. […] The plate has 24 columns, thus we could record responses in up to eight different cell lines in each plate. On the day of the experiment, the growth medium was replaced with 20 µL assay buffer/well (140 mM NaCl, 5 mM KCl, 2 mM CaCl2, 1 mM MgCl2, 5 mM HEPES-Na, 20 mM glucose, pH 7.3, 340 mOsm). […] Baseline fluorescence (F0) was recorded for 5 s, after which 7 µL VOC buffer (140 mM NaCl, 5 mM KCl, 2 mM CaCl2, 1 mM MgCl2, 5 mM HEPES-Na, 31 mM glucose, 0.1% DMSO, pH 7.3, 340 mOsm) was injected into each well in one row and the fluorescence response was recorded for an additional 30 s, at a rate of one read/sec. VOC solutions (VOC buffer with 4× concentration of the final measured VOC concentration, 9 µL/well was injected) were measured on the same wells in a second round with the same protocol. Each individual concentration of a specific VOC sample was recorded in three wells for the same cell line on the same microplate. The raw data were exported in xls file format, F0 and FMAX values, and the fluorescence intensity changes (∆F) were calculated in Excel (Microsoft) (Supplementary file Data summary.xlsx) using the following equation: ΔF=FMAX-F0/F0 (see also Fig. 1C). On each plate, we recorded the response of each cell line to 50 µM VUAA1. The average of these ∆F values of each cell line were used to calculate the VUAA1-normalized values for the rest of the plate, by dividing VOC response ∆F values by the average VUAA1 response ∆F value of the corresponding OR cell line. Each VOC-OR combination was measured three times as technical replicates. […] The average of these replicates were used as one ∆F and VUAA1-normalized ∆F in the following analysis.
In the next rows we tested the reference VOCs (or other VOCs known to activate the corresponding cell lines), in order to test if all cell lines are responsive. The remaining rows were used to test VOCs with unknown effect.
The recorded FMAX, F0, ∆F, VUAA1-normalized ∆F values, as well as the OR name, the name of the tested sample, and the final concentration for each well were copied into supplementary file Data summary.xlsx, that was used to summarize all the plates recorded. Here, the averages of the measurements were calculated for each receptor-VOC-concentration combination.

[1] = HEK293, read-out: OR13a Average response (VUAA1-normalized), 1 μM VOC, 50 μM VUAA1 = 1, responses not exceeding 0.05 considered 0
[2] = HEK293, read-out: OR13a Average response (VUAA1-normalized), 10 μM VOC, 50 μM VUAA1 = 1, responses not exceeding 0.05 considered 0
[3] = HEK293, read-out: OR13a Average response (VUAA1-normalized), 100 μM VOC, 50 μM VUAA1 = 1, responses not exceeding 0.05 considered 0
[4] = ligand concentration 1 (unit not given), threshold 0.05, below shown as 0
[5] = ligand concentration 10 (unit not given), threshold 0.05, below shown as 0
[6] = ligand concentration 100 (unit not given), threshold 0.05, below shown as 0
[7] = 1 μM VOC, 50 μM VUAA1 = 1, responses not exceeding 0.05 considered 0
[8] = 10 μM VOC, 50 μM VUAA1 = 1, responses not exceeding 0.05 considered 0
[9] = 100 μM VOC, 50 μM VUAA1 = 1, responses not exceeding 0.05 considered 0
[10] = concentration 1, normalized fluorescence change, values below 0.05 threshold given as 0
[11] = concentration 10, normalized fluorescence change, values below 0.05 threshold given as 0
[12] = concentration 100, normalized fluorescence change, values below 0.05 threshold given as 0

Compound	activation at 1 µM [1]	activation at 10 µM [2]	activation at 100 µM [3]	OR13a response (VUAA1-normalized) at 1 μM (VOC concentration 1 μM)	OR13a response (VUAA1-normalized) at 10 μM (VOC concentration 10 μM)	OR13a response (VUAA1-normalized) at 100 μM (VOC concentration 100 μM)	DF norm AVERAGE OR13a [4]	DF norm AVERAGE OR13a [5]	DF norm AVERAGE OR13a [6]	OR13a Average response (VUAA1-normalized) [7]	OR13a Average response (VUAA1-normalized) [8]	OR13a Average response (VUAA1-normalized) [9]	OR13a response (VUAA1-normalized response) (VOC concentration 1 μM)	OR13a response (VUAA1-normalized response) (VOC concentration 10 μM)	OR13a response (VUAA1-normalized response) (VOC concentration 100 μM)	DF norm AVERAGE OR13a [10]	DF norm AVERAGE OR13a [11]	DF norm AVERAGE OR13a [12]	other results
Cc1ccccc1C [o-xylene]	0%	0%	1.83%	0.00	0.00	0.00	0	0	0	–	–	–	–	–	–	–	–	–	–
C=C(C)C1CCC2(C)OC2C1 (single isomer, unassigned; (+)) [(+)-limonene oxide]	–	–	–	–	–	–	–	–	–	0.00	0.00	0.00	0.00	0.00	0.00	0	0	0	–
C=C1CC[C@H]2O[C@]2(C)CC[C@@H]2[C@@H]1CC2(C)C [(-)-caryophyllene oxide]	0%	0%	0%	–	–	–	–	–	–	–	–	–	–	–	–	0	0	0	activation at 1 µM (HEK293, read-out: OR13a response (VUAA1-normalized response), VOC concentration 1 μM): 0%; activation at 10 µM (HEK293, read-out: OR13a response (VUAA1-normalized response), VOC concentration 10 μM): 0%; activation at 100 µM (HEK293, read-out: OR13a response (VUAA1-normalized response), VOC concentration 100 μM): 0%
CC/C=C\CCOC(C)=O [z3-hexenyl acetate]	0%	2.61%	9%	–	–	–	–	–	–	–	–	–	–	–	–	–	–	–	DF norm AVERAGE OR13a (ligand concentration 1 (unit not given), 0.05 threshold, values below shown as 0): 0; DF norm AVERAGE OR13a (ligand concentration 10 (unit not given), 0.05 threshold, values below shown as 0): 0; DF norm AVERAGE OR13a (ligand concentration 100 (unit not given), 0.05 threshold, values below shown as 0): 0.09283
(+)-beta-cedrene	–	–	–	–	–	–	–	–	–	0.00	0.00	0.00	0.00	0.00	0.00	0	0	0	–
Cc1cccc(C)c1 [m-xylene]	0%	0%	4%	0.00	0.00	0.00	0	0	0	–	–	–	–	–	–	–	–	–	–
